Results taken from US4707495A, “Peptic ulcer treatment method” (Ortho Pharmaceutical, priority 1985, dated 1987).

Assays:
gastric acid secretion [1] = test: Inhibition of gastric acid secretion (pylorus ligation); assay type: in vivo, Male Charles River CD rats; conditions: for Percent Inhibition of Acid, Intraduodenal / Percent Inhibition of Acid, Topical: 4 h after pylorus ligation; for Percent Inhibition of Acid, Intraduodenal: 2 percent ethanolic water; for Percent Inhibition of Acid, Topical: topical to shaved skin, 25 percent ethanolic water
Experimental: Male Charles River CD rats weighing about 180 g each were shaved on their dorsal sides and derpived of food for a time period of 18 hours prior to use. Water was permitted ad libitim during that time, but was removed during the times at which the rats were studied as host mammals.
Compositions containing the active ingredient were administered intraduodenally at 1 ml/kg or were applied to directly contact the shaved skin at 0.2 ml/animal at the time the pylorus of each animal was ligated.
The animals were sacrificed by asphyxiation four hours after pylorus ligation using carbon dioxide. The gastric contents were collected in graduated centrifuge tubes that were centrifuged. The centrifugally separated supernatents were then analyzed for volume and acidity. Acid concentration (secretion) was determined by electrometric titration of a 1 ml aliquot of the recovered gastric juice against 0.1N NaOH to a pH value of 7.4.
Treated groups were compared to the control and statistical differences were declared by the method of least significant differences.
(treatment-control)/control×100%

submucosal lesions = test: Cytoprotection: inhibition of submucosal gastric lesions induced by oral 50 percent ethanol; assay type: in vivo, Male Charles River rats; conditions: for Percent Inhibition of Submucosal Lesions, Oral: 2 percent aqueous ethanol vehicle; for Percent Inhibition of Submucosal Lesions, Topical: topical to shaved skin, 25 percent ethanolic water; for cytoprotection when applied topically (in words): topical, at the same unit dose as effective orally
Experimental: Male Charles River rats weighing about 200 g each were fasted overnight, but were allowed water ad libitum. Rats used for the topical administration of this invention were shaved on their dorsal sides one day prior to being used as host mammals.
Compositions containing the active ingredient were prepared for oral administration by dissolving a prostaglandin in a 2 percent aqueous ethanolic solution that was administered in a dose volume of 0.2 milliliters per kilogram (ml/kg) of body weight at the unit dosages shown in Table 1 hereinafter. […] A fixed concentration for each dose was applied to the skin in a volume of 0.2 ml per rat.
Gastric lesions were induced by oral administration of 1.0 ml of a 50 percent ethanolic water solution that was administered one hour after administration of each of the active ingredients. The rats were sacrificed by asphyxiation one hour after gastric lesion induction using carbon dioxide. The rat stomachs were then removed, inflated with water, opened along the greater curvature, and were laid out on a flat surface. The presence of mucosal bleeding was noted, the mucosal layers were wiped, and the presence or absence of hemorrhagic sites was recorded.
The incidences of lesions compared to controls were statistically analyzed by either the method of Chi-square using Yate's correction or Fisher's Exact Probability Test.

gastrointestinal mucosa = conditions: in vivo; cited from earlier work
gastric acid secretion [2] = conditions: given orally to rats, at any dose; cited from earlier work
[3] = tested on: indomethacin-induced gastric lesions; conditions: oral administration; cited from earlier work
gastric acid secretion [4] = conditions: laboratory animals and man; cited from earlier work
[5] = 5 μg/kg (estimate based on 200 g rat)
[6] = 25 μg/kg, lesions by 50 percent ethanol 1 h after agent
[7] = 25 μg/kg (estimate based on 200 g rat)

SMILES: CCCCC(C)(O)C/C=C/[C@H]1[C@H](O)CC(=O)[C@@H]1CCCCCCC(=O)OC (mixture of isomers) [Misoprostol, (±)(11α,13E)-11,16-dihydroxy-16-methyl-9-oxo-prost-13-en-1-oic acid methyl ester]
- Percent Inhibition of Acid, Intraduodenal (gastric acid secretion [1]; 8.0 mg/kg): 38%
- Percent Inhibition of Acid, Topical (gastric acid secretion [1]; 8.0 mg/kg): 43%
- Percent Inhibition of Submucosal Lesions, Oral (submucosal lesions; 100 μg/kg): 87%
- Percent Inhibition of Submucosal Lesions, Topical (submucosal lesions; 100 μg/kg (estimate based on 200 g rat)): 75%
- cytoprotection when applied topically (in words) (submucosal lesions): effective at the same oral dose when applied externally

SMILES: COC(=O)CCC=C=CC[C@H]1C(=O)C[C@@H](O)[C@@H]1/C=C/C(O)COc1ccccc1 (relative stereo) [Enprostil, 7-[3-hydroxy-2-(3-hydroxy-4-phenoxy-1-butenyl)-5-oxocyclopentyl]-4,5-heptad ienoic acid methyl ester]
- Percent Inhibition of Acid, Intraduodenal (gastric acid secretion [1]; 1.0 mg/kg): 71%
- Percent Inhibition of Acid, Topical (gastric acid secretion [1]; 1.0 mg/kg): 32%
- Percent Inhibition of Submucosal Lesions, Oral (submucosal lesions; 5 μg/kg): 100%
- Percent Inhibition of Submucosal Lesions, Topical (submucosal lesions; [5]): 100%
- cytoprotection when applied topically (in words) (submucosal lesions): effective at the same oral dose when applied externally

SMILES: CCCCC(C)(C)C(O)/C=C/[C@H]1[C@H](C)CC(=O)[C@@H]1C/C=C\CCCC(=O)O (relative stereo) [Trimoprostil, (±)9-oxo-11α-methyl-15-hydroxy-16,16-dimethyl-5-cis,13-trans-prost adienoic acid]
- Percent Inhibition of Acid, Intraduodenal (gastric acid secretion [1]; 8.0 mg/kg): 38%
- Percent Inhibition of Acid, Topical (gastric acid secretion [1]; 8.0 mg/kg): 9%
- inhibition of gastric acid when applied topically (in words) (gastric acid secretion [1]; topical, at the unit dosage effective intraduodenally): ineffective at significantly inhibiting production of gastric acid, when applied topically

SMILES: C[N+]1(C)[C@@H]2C[C@@H](OC(=O)[C@H](CO)c3ccccc3)C[C@H]1[C@@H]1O[C@@H]12 (stereo in doubt) [methscopolamine bromide]
- cytoprotective activity (gastrointestinal mucosa): not cytoprotective in the models employed

SMILES: CCCCC[C@@](C)(O)/C=C/[C@@H]1[C@@H](C/C=C\CCCC(=O)O)[C@H](O)C[C@H]1O [15(R)-15 methyl PGF2β]
- cytoprotective activity (gastrointestinal mucosa): cytoprotective
- antisecretory activity (gastric acid secretion [2]): not antisecretory at any dose when given orally to rats

SMILES: CCCCC(C)(C)[C@H](O)/C=C/[C@H]1C=CC(=O)[C@@H]1C/C=C\CCCC(=O)O [16,16-dimethyl PGA2]
- cytoprotective activity (gastrointestinal mucosa): cytoprotective
- antisecretory activity (gastric acid secretion [2]): not antisecretory at any dose when given orally to rats

SMILES: CCCCC[C@H](O)/C=C/[C@H]1C=CC(=O)[C@@H]1CCCCCCC(=O)O [PGA1]
- protection from indomethacin-induced gastric lesions [3]: does not protect rats from indomethacin-induced gastric lesions

SMILES: CCCCC[C@H](O)/C=C/[C@H]1C(=O)C[C@H](O)[C@@H]1C/C=C\CCCC(=O)O [PGD2]
- protection from indomethacin-induced gastric lesions [3]: does not protect rats from indomethacin-induced gastric lesions

SMILES: CCCCC[C@H](O)/C=C/[C@H]1[C@H](O)CC(=O)[C@@H]1CCCCCCC(=O)O [PGE1, 9-oxo-11 alpha,15-dihydroxy-13-trans-prostenoic acid]
- Percent Inhibition of Submucosal Lesions, Oral (submucosal lesions; [6]): 60%
- Percent Inhibition of Submucosal Lesions, Topical (submucosal lesions; [7]): 10%
- cytoprotection when applied topically (in words) (submucosal lesions): ineffective at providing cytoprotection when applied topically
- gastric antisecretory activity (gastric acid secretion [4]): have gastric antisecretory activity in both laboratory animals and man

SMILES: CCCCC[C@H](O)/C=C/[C@H]1[C@H](O)CC(=O)[C@@H]1C/C=C\CCCC(=O)O [PGE2, 9-oxo-11α,15-dihydroxy-5-cis,13-transprostadienoic acid]
- Percent Inhibition of Submucosal Lesions, Oral (submucosal lesions; [6]): 40%
- Percent Inhibition of Submucosal Lesions, Topical (submucosal lesions; [7]): 20%
- cytoprotection when applied topically (in words) (submucosal lesions): ineffective at providing cytoprotection when applied topically
- gastric antisecretory activity (gastric acid secretion [4]): have gastric antisecretory activity in both laboratory animals and man

SMILES: CCCCC(C)(O)C/C=C/[C@H]1[C@H](O)CC(=O)[C@@H]1CCCCCCCO (stereo partly drawn) [Rioprostil, (11α,13E)-1,11,16-trihydroxy-16-methyl-prost-13-en-9-one]
- Percent Inhibition of Acid, Intraduodenal (gastric acid secretion [1]; 8.0 mg/kg): 35%
- Percent Inhibition of Acid, Topical (gastric acid secretion [1]; 8.0 mg/kg): 37%
- Percent Inhibition of Submucosal Lesions, Oral (submucosal lesions; [6]): 87%
- Percent Inhibition of Submucosal Lesions, Topical (submucosal lesions; [7]): 75%
- cytoprotection when applied topically (in words) (submucosal lesions): effective at the same oral dose when applied externally

SMILES: CN/C(=N/CCSCc1nc[nH]c1C)NC#N [cimetidine]
- cytoprotective activity (gastrointestinal mucosa): not cytoprotective in the models employed

SMILES: CCCCC(C)(C)[C@H](O)/C=C/[C@H]1[C@H](O)CC(=O)[C@@H]1C/C=C\CCCC(=O)O [dmPGE2, (5Z,11α,13E,15R)-11,15-dihydroxy-16,16-dimethyl-9-oxo-prosta-5,13-1-o ic acid acid]
- Percent Inhibition of Acid, Intraduodenal (gastric acid secretion [1]; 1.0 mg/kg): 29%
- Percent Inhibition of Acid, Topical (gastric acid secretion [1]; 1.0 mg/kg): 26%
- Percent Inhibition of Submucosal Lesions, Oral (submucosal lesions; 5 μg/kg): 100%
- Percent Inhibition of Submucosal Lesions, Topical (submucosal lesions; [5]): 100%
- cytoprotection when applied topically (in words) (submucosal lesions): effective at the same oral dose when applied externally
